# Reference: ChEMBL document CHEMBL1139228, “Saliniketals A and B, bicyclic polyketides from the marine actinomycete Salinispora arenicola” (J Nat Prod, 2007)
# The source made the active and inactive calls. The rule behind the calls is not given here.
# Columns and labels:
# [1] = target: T1, Ornithine decarboxylase (Homo sapiens) (UniProt P11926); assay: Inhibition of ornithine decarboxylase induction expressed in T24 cells; type: cell-based; settings: T-24
# T1 sequence (whole entry): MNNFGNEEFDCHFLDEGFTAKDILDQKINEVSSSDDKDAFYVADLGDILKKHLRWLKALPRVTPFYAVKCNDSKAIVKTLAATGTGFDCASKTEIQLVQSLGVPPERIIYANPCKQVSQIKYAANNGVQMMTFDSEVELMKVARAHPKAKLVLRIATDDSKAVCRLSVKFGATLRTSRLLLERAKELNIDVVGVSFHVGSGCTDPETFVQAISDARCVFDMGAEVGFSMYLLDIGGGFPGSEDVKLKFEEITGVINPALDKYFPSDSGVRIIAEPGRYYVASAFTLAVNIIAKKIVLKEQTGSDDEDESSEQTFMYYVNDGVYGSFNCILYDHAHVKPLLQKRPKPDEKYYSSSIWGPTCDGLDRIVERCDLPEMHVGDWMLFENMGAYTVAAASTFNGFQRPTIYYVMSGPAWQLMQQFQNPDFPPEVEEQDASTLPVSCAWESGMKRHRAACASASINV
# [2] = target: T1, Ornithine decarboxylase (Homo sapiens); assay: Inhibition of ornithine decarboxylase upto 1 mM
# [3] = Inhibition of DNA dependent RNA polymerase in prokaryotes
Activity [1],Activity [2],Activity [3],SMILES
inactive,inactive,,C[C@H]([C@H](O)[C@H](C)[C@@H](O)[C@@H](C)/C=C/C=C(/CO)C(N)=O)[C@@H]1O[C@@]2(C)CC[C@@H](O2)[C@H]1C
,,Active,CO[C@H]1/C=C/O[C@@]2(C)Oc3c(C)c(O)c4c(O)c(cc(O)c4c3C2=O)NC(=O)/C(C)=C\C=C\[C@H](C)[C@H](O)[C@@H](C)[C@@H](O)[C@@H](C)[C@H](OC(C)=O)[C@@H]1C
inactive,inactive,,C/C(=C/C=C/[C@H](C)[C@H](O)[C@@H](C)[C@@H](O)[C@@H](C)[C@@H]1O[C@@]2(C)CC[C@@H](O2)[C@H]1C)C(N)=O
